Reference: patent US7476676B2, “Methods for increasing bone formation using inhibitors of glycogen synthase kinase-3β” (Roche Palo Alto LLC, priority 2002, dated 2009)
Where two headings read alike, the source gives them in different places. Values belong to the compound of their own block, whether it stands above or below them.

What was measured:
[1] = target: T1, truncated form of recombinant rabbit GSK-3β enzyme (Oryctolagus cuniculus, UniProt G1T8E2); assay: Inhibition of Glycogen Synthase Kinase-3β in vitro assay; format: biochemical
T1 construct: The construct was cloned in pGEX-3X vector; fused on or other part: GST at the N-terminus (pGEX-3X vector, purified on glutathione sepharose 4B)
Method: The in vitro GSK-3β inhibitory activity of compounds of this invention was determined with a truncated form of recombinant rabbit GSK-3β enzyme.
The construct was cloned in pGEX-3X vector according to the procedure described in Wang, Q. M. et al., J. Biol. Chem. 269, 14566-14574 (1994). Ten amino acids at the N-terminus were deleted to obtain constitutively active GSK-3β ((see Murai H. et al., FEBS Lett. 392,153-60, (1996)). GSK-3β was expressed in BL21 DE3 cells. The cells were grown at 37° C. until they reached mid log phase and then induced with isopropyl-beta-(D)-thiogalactopyranoside (final concentration 0.4 mM) at 30° C. for 2 h. The cells were homogenized and the cell extract was loaded on a glutathione sepharose 4B column. GSK-3β was eluted with glutathione buffer (50 mM Tris pH 8 and 10 mM reduced glutathione). The eluate was collected in 3 minute fractions and assayed for GSK-3β content on a 10% SDS PAGE (polyacrylamide gel electrophoresis). Fractions above 20% peak height were pooled, aliquoted, and stored at −80° C. until used.
ATP (1 μCi), and 2 μl of compounds of this invention in DMSO (various concentrations). 15 μl of GSK-3β (various concentrations) was added and the reaction mixture was incubated at 30° C. for 1 h. The reaction was stopped by transferring 25 μl of the reaction mixture to a phosphocellulose plate containing 130 μl of 1.85% phosphoric acid. The free radionucleotides in the membrane were washed off under vacuum with 1.85% phosphoric acid (5 times). After the last wash, the plate was transferred to an adoptor plate and 50 μl of scintillation cocktail (Microscint-20, Packard, cat. #20-133) was added to each well and the amount of radioactivity was counted in a top counter.

[2] = system: Ovalbumin-sensitized Brown-Norway rats; assay: Study GSK8 - bone formation in rats treated with Compound II-3; format: in vivo, rat; details: twice daily oral gavage Days 6-8 and 13-23, liposome formulation
Method: Ovalbumin-sensitized Brown-Norway rats were used. They were sensitized i.p. with 100 μg of OA (ovalbumin) in 0.2 ml alum once every week for three weeks (Day 0, 7 and 14). Seven days after the final sensitization (Day 21), rats were challenged with 1% OA for 45 minutes and euthanized 72 hrs later (day 24). Compound II-3 was given twice daily by oral gavage on Days 6-8 and Days 13-23. Compound was prepared as a liposome formulation—8 mg/ml liposome solution in a liposome composition of 1.44 grams of compound and 54 grams of L-alpha-phosphatidylcholine in 160 ml of sterile water for injection.
Femur samples were decalcified in 10% formic acid, embedded in paraffin, sectioned at five micron thickness and stained with hematoxylin and eosin.

[3] = system: Male Wistar rats; assay: Study MT021 - bone formation in rats with Compound II-9; format: in vivo, rat
Method: Compound was formulated as a solution in 10% w/v Solutol. Male Wistar rats were dosed by oral gavage, once per day for 14 days at 25, 75 or 150 mg/kg/day and compared to vehicle control (10% Solutol, 10 ml/kg/day). Complete necroscopies were done and the tissues preserved in 10% formalin. Femur, sternum and vertabra were processed and analyzed as described in Example 3.

[4] = system: osteopenic rat model; assay: Bone anabolism in the rat (osteopenic rat model; bone mineral density, serum and urine calcium); format: in vivo
Method: . Three month old rats are ovariectomized (Ovx) and administered either bovine parathyroid hormone (Amino Acids^1-34) (bPTH in Table) or one of the compounds of the present invention once a day by mouth starting at least 4 weeks post-ovariectomy and continuing until final sacrifice after 3 weeks of daily treatment. Control groups, both sham (rats that were not ovariectomized) and Ovx, received vehicle only. Bovine parathyroid hormone, bPTH, was tested at 40 ug/kg (optimal dose) as an internal positive control for anabolic activity. […] Blood and urine samples were collected at 2-3 weeks after initiation of treatment and the amount of calcium in the serum and urine was determined.
The bone mineral density of the right femur was determined using the High Resolution Software on a QDR-4500W Bone Densitometer™ (Hologic, Waltham, Mass.). The animals were scanned by placing them on a plexiglass block in a supine position such that the right leg was perpendicular to the main body and the tibia was perpendicular to the femur. The increase in the bone mineral density and the amount of calcium in the urine and the serum for the compounds are given in the table below.

[5] = Ovx rats, 30 mg/kg/day by mouth
[6] = Sham (intact) rats, 30 mg/kg/day by mouth
[7] = Ovx rats, 0.04 mg/kg/day, Compound X study
[8] = Ovx rats, 0.04 mg/kg/day, III-2 Ovx study
[9] = Sham (intact) rats, 0.04 mg/kg/day

T1 sequence (G1T8E2 1-432): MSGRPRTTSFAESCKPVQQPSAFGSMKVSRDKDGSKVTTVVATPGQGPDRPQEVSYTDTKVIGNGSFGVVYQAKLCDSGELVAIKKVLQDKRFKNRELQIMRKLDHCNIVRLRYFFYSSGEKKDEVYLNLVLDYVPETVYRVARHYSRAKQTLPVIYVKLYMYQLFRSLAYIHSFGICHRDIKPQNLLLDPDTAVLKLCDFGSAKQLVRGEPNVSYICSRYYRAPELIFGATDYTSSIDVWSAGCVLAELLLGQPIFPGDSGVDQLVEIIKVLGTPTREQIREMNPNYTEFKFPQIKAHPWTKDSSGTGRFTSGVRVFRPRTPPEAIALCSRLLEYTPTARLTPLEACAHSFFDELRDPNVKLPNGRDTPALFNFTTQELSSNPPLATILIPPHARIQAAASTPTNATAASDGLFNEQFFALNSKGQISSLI

melting point: 245 to 247.1 °C
Compound: Cn1cc(C2=C(c3ccccc3OCC(O)CO)C(=O)NC2=O)c2ccccc21 (stereo not shown) [Compound I-1]

melting point: 177.7 to 178 °C
IC50 [1]: 3.2 nM
Compound: Cn1cc(C2=C(c3cccc(OC[C@H](O)CO)c3)C(=O)NC2=O)c2ccccc21 [II-3]
cancellous bone under the growth plate of the femur (light microscopy) [2]: moderate increases in cancellous bone

melting point: 160 to 163.5 °C
IC50 [1]: 1.5 nM
Compound: Cl.Cn1cc(C2=C(c3cccc(NCC(O)CO)c3)C(=O)NC2=O)c2ccccc21 (stereo not shown) [II-9]
animals with increased cancellous bone ([3]; 25 mg/kg group, oral, 14 days): only one animal
rats with increased new bone formation ([3]; 150 mg/kg group, oral, 14 days): Five out of six
cancellous bone (femur, sternum, vertebra) ([3]; oral gavage once per day for 14 days at 25, 75 or 150 mg/kg/day): Increased cancellous bone was observed in all groups

Second part, the compound before the results:

Compound: Cn1cc(C2=C(c3cccc(NCCCO[Si](C)(C)C(C)(C)C)c3)C(=O)NC2=O)c2ccccc21
melting point: 58 to 65 °C

Compound: Nc1nc(NCCNc2ncc(-c3ncc[nH]3)c(-c3ccc(Cl)cc3Cl)n2)ccc1[N+](=O)[O-] [Compound X, N^6-{2-[4-(2,4-dichloro-phenyl)-5-(1H-imidazol-2-yl)-pyrimidin-2-ylamino]-ethyl}-3-nitro-pyridine-2,6-diamine, reference compound]
IC50 ([1]; GSK-3β assay of Biological Example 1): 1.7 nM

Compound: Cn1cc(C2=C(c3cccc(OCCN4CCOCC4)c3)C(=O)NC2=O)c2ccccc21 [II-4]
melting point: 197.7 to 199 °C

Compound: Cl.Cn1cc(C2=C(c3cccc(NCC(O)CO)c3)C(=O)NC2=O)c2cc(F)ccc21 (stereo not shown) [III-2]
LUMBAR SPINE % 3 wk BMD Change [4, 5]: 7.9 ± 1.8%
WHOLE FEMUR % 3 wk BMD Change [4, 5]: 11.6 ± 0.9%
LUMBAR SPINE % 3 wk BMD Change [4, 6]: 9.5 ± 1.8%
WHOLE FEMUR % 3 wk BMD Change [4, 6]: 13.1 ± 1.3%

Compound: bPTH: bovine parathyroid hormone (Amino Acids 1-34), internal positive control for anabolic activity
LUMBAR SPINE % 3 wk BMD Change [4, 7]: 8.6 ± 1.8%
WHOLE FEMUR % 3 wk BMD Change [4, 7]: 7.0 ± 1.1%
LUMBAR SPINE % 3 wk BMD Change [4, 8]: 12.2 ± 1.5%
WHOLE FEMUR % 3 wk BMD Change [4, 8]: 16.6 ± 0.9%
LUMBAR SPINE % 3 wk BMD Change [4, 9]: 15.7 ± 0.8%
WHOLE FEMUR % 3 wk BMD Change [4, 9]: 11.7 ± 1.0%
